Results taken from patent US11840686B2, “Modulation of prekallikrein (PKK) expression” (Ionis Pharmaceuticals, Inc., priority 2013, dated 2023).
Strand notation (5' to 3'): a small letter for the sugar, then the base; units joined by * are phosphorothioate-linked, units joined directly phosphodiester-linked; [ ] holds rarer units or linkages, { } end groups; capitals alone tell only the bases. e = 2'-O-(2-methoxyethyl) (MOE); [5mC] = 5-methylcytosine; d = 2'-deoxy (DNA)

Key:
human PKK mRNA [1] = experiment: Human PKK mRNA in liver of human KLKB1 transgenic mice (Example 7); assay type: in vivo; conditions: twice a week for 3 weeks
Description: (§1) Transgenic mice containing a 37,390 base pair fragment of the human KLKB1 gene sequence (chromosome 4: position 187148672-187179625, accession no: NC_000004.11) were treated with ISIS antisense oligonucleotides selected from studies described above, which were evaluated for efficacy in this model.
(§2) Groups of transgenic mice were injected subcutaneously twice a week for 3 weeks with 2.5 mg/kg/week, 5.0 mg/kg/week, 10 mg/kg/week or 20 mg/kg/week of ISIS 546232, ISIS 546251, ISIS 546254, ISIS 546343, ISIS 546828, ISIS 547455, ISIS 547457, ISIS 547927, and ISIS 548048. One group of transgenic mice was injected subcutaneously twice a week for 3 weeks with PBS. Mice were euthanized 48 hours after the last dose, and organs and plasma were harvested for further analysis.
To evaluate the effect of ISIS oligonucleotides on target reduction, RNA was extracted from liver tissue for real-time PCR analysis of human PKK. Results are presented as percent inhibition of PKK mRNA, relative to PBS control.

PKK protein = experiment: Plasma PKK protein levels in human KLKB1 transgenic mice (Example 7); assay type: in vivo; conditions: plasma, twice a week for 3 weeks
Description: as §1, §2
Plasma PKK protein levels were evaluated in all groups. Results are presented as percent inhibition of PKK protein, relative to PBS control.

human PKK mRNA [2] = experiment: Antisense inhibition of human PKK mRNA in HepaRG cells, 5,000 nM (Example 2); assay type: cell-based
How it was run: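 qRT-PCR (RTS3454) read-out, RIBOGREEN-normalized; % inhibition vs untreated cells. HepaRG, 20,000 cells/well, electroporation, 5,000 nM ASO, ~24 h.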

PKK mRNA = PKK mRNA in cynomolgus monkey liver (Example 8); assay type: in vivo; conditions: 40 mg/kg s.c., loading then weekly to week 13; day 87 or 88, 48 h after final dose
Description: Cynomolgus monkeys were treated with ISIS antisense oligonucleotides selected from studies described above. Antisense oligonucleotide efficacy and tolerability were evaluated. The human antisense oligonucleotides tested are cross-reactive with the rhesus genomic sequence (GENBANK Accession No. NW_001118167.1 truncated from nucleotides 2358000 to 2391000 and designated herein as SEQ ID NO: 18).
On day 87 or 88, 48 hours after the final dose, RNA was extracted from liver tissue for real-time PCR analysis of PKK using primer probe set RTS3455 (forward sequence […], designated herein as SEQ ID NO: 23; reverse sequence […], designated herein as SEQ ID NO: 24; probe sequence […], designated herein as SEQ ID NO: 25). The results were normalized to the housekeeping gene, Cyclophilin. Results are presented as percent inhibition of PKK mRNA, relative to PBS control.

human PKK mRNA [3] = experiment: Dose-dependent antisense inhibition of human PKK in HepaRG cells, 0.19-5.00 uM (Example 5); assay type: cell-based
How it was run: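 PKK mRNA knockdown was measured by real-time PCR (primer probe set RTS3454) about 16 h after electroporating 20,000 HepaRG cells per well with oligonucleotide at four doses from 0.19 to 5.00 μM. Levels were adjusted to RIBOGREEN-measured total RNA, and IC50 values were calculated.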

[4] = HepaRG cells, electroporation, approximately 16 hours, Table 41
[5] = 4 point dose response, HepaRG cells, Table 41
[6] = Table 34, HepaRG, electroporation, ~16 h
[7] = Table 34, PKK mRNA, HepaRG, electroporation, ~16 h
[8] = HepaRG cells, electroporation, approximately 16 hours, Table 39

Substance	% inhibition of PKK mRNA in the transgenic mice liver relative to the PBS control (human PKK mRNA [1]; 2.5 mg/kg/week sc) [%]	% inhibition of PKK mRNA in the transgenic mice liver relative to the PBS control (human PKK mRNA [1]; 5 mg/kg/week sc) [%]	% inhibition of PKK mRNA in the transgenic mice liver relative to the PBS control (human PKK mRNA [1]; 10 mg/kg/week sc) [%]	% inhibition of PKK mRNA in the transgenic mice liver relative to the PBS control (human PKK mRNA [1]; 20 mg/kg/week sc) [%]	% inhibition of PKK protein levels in the transgenic mice relative to the PBS control (PKK protein; 2.5 mg/kg/week sc) [%]	% inhibition of PKK protein levels in the transgenic mice relative to the PBS control (PKK protein; 5 mg/kg/week sc) [%]	% inhibition of PKK protein levels in the transgenic mice relative to the PBS control (PKK protein; 10 mg/kg/week sc) [%]	% inhibition of PKK protein levels in the transgenic mice relative to the PBS control (PKK protein; 20 mg/kg/week sc) [%]	% inhibition of PKK mRNA in the cynomolgus monkey liver relative to the PBS control (PKK mRNA) [%]	percent inhibition of PKK at 5.00 μM (human PKK mRNA [3]; [4]) [%]	percent inhibition of PKK at 0.19 0μM (human PKK mRNA [3]; [4]) [%]	percent inhibition of PKK at 0.56 0μM (human PKK mRNA [3]; [4]) [%]	percent inhibition of PKK at 1.67 1μM (human PKK mRNA [3]; [4]) [%]	IC50 (human PKK mRNA [3]; [5]) [µM]	percent inhibition of PKK at 0.19 μM (human PKK mRNA [3]; [6]) [%]	percent inhibition of PKK at 0.56 μM (human PKK mRNA [3]; [6]) [%]	percent inhibition of PKK at 1.67 μM (human PKK mRNA [3]; [6]) [%]	percent inhibition of PKK at 5.00 μM (human PKK mRNA [3]; [6]) [%]	IC50 (human PKK mRNA [3]; [7]) [µM]	further results
546254 (eT*eG*e[5mC]*eA*eA*dG*dT*d[5mC]*dT*d[5mC]*dT*dT*dG*dG*d[5mC]*eA*eA*eA*e[5mC]*eA) [compound 546254]	31	55	84	83	0	36	51	76	88	95	40	63	84	0.3	51	66	80	91	0.2	% inhibition (human PKK mRNA [2]; Table 8, HepaRG cells, electroporation with 5,000 nM antisense oligonucleotide, approx. 24 hours, PKK mRNA by RT-PCR (RTS3454), relative to untreated control cells): 95%
546828 (eA*e[5mC]*eA*eG*eT*dA*dT*d[5mC]*dA*d[5mC]*dT*dG*dT*dA*d[5mC]*eT*eA*eG*eT*eT) [compound 546828]	77	62	32	83	0	25	36	93	45	97	0	64	89	0.2	39	58	87	93	0.3	% inhibition (human PKK mRNA [2]; Table 13, human PKK mRNA in HepaRG cells, 5-10-5 gapmers): 95%
546232 (eA*eG*eG*eA*eA*d[5mC]*dT*dT*dG*dG*dT*dG*dT*dG*d[5mC]*e[5mC]*eA*e[5mC]*eT*eT) [compound 546232]	57	53	30	84	0	6	33	79	88	–	–	–	–	–	–	–	–	–	–	% inhibition (human PKK mRNA [2]; Table 7, HepaRG cells, electroporation with 5,000 nM antisense oligonucleotide, approx. 24 hours, PKK mRNA by RT-PCR (RTS3454), relative to untreated control cells): 86%; percent inhibition of PKK at 0.19 μM (human PKK mRNA [3]; [8]): 49%; percent inhibition of PKK at 0.56 μM (human PKK mRNA [3]; [8]): 50%; percent inhibition of PKK at 1.67 μM (human PKK mRNA [3]; [8]): 94%; percent inhibition of PKK at 5.00 μM (human PKK mRNA [3]; [8]): 97%; IC50 (human PKK mRNA [3]; 4 point dose response, HepaRG cells, Table 39): 0.2 µM; percent inhibition of PKK mRNA, 0.19 μM (human PKK mRNA [3]; HepaRG cells, 0.19 μM antisense oligonucleotide): 0%; percent inhibition of PKK mRNA, 0.56 μM (human PKK mRNA [3]; HepaRG cells, 0.56 μM antisense oligonucleotide): 74%; percent inhibition of PKK mRNA, 1.67 μM (human PKK mRNA [3]; HepaRG cells, 1.67 μM antisense oligonucleotide): 95%; percent inhibition of PKK mRNA, 5.00 μM (human PKK mRNA [3]; HepaRG cells, 5.00 μM antisense oligonucleotide): 96%; IC50 (human PKK mRNA [3]; HepaRG cells, 0.19-5.00 μM): 0.2 µM
